Test results published in paper PMC11284787, “Ligand-Directed Labeling of the Adenosine A1 Receptor in Living Cells” (Journal of Medicinal Chemistry, 2024).
Where two headings read alike, the source gives them in different places.

Key:
NL-hA1AR = target: T1, NL-hA1AR (Homo sapiens, UniProt P30542); assay: NanoBRET saturation ligand-binding assay, NL-hA1AR
T1 construct: expressed in transfected cells
T1 sequence (P30542 1-326): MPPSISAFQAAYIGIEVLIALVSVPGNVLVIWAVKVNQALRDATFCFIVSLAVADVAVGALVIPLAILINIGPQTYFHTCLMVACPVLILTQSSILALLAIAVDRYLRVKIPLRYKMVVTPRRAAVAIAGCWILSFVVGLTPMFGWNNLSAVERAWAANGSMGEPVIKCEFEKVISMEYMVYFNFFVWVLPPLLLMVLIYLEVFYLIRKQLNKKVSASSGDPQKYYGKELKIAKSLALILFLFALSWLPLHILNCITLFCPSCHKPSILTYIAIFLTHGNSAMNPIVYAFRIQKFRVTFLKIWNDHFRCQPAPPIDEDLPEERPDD
Experimental: The ligand-binding properties of the newly synthesized probes were assessed in a series of pharmacological assays. Initially, a NanoBRET[47],[48] saturation binding experiment was used to evaluate the binding affinity of ligand-directed probes functionally labeled with the SulfoCy5 fluorophore (11) to the NanoLuc(NL)-tagged[49] hA1AR expressed in HEK293T cells.
NanoBRET binding assay. All NanoBRET experiments were performed in white flat […]
37 °C for kinetic binding experiments. Emissions were read at 420 nm (80 nm bandpass; […]
the SulfoCy5-labelled probe. […]
nm emission by the 420 nm emission. The term “raw BRET ratio” refers to the unprocessed data as no background ratio has been subtracted. In all NanoBRET binding […]
competitive antagonist selective for the adenosine receptor under investigation […]
MRS1220 for the A3AR). HEK293T cells stably/transiently expressing Nluc-AR were […]
were incubated for 1 h at 37 °C. […]
NanoBRET saturation binding assay. Total and nonspecific saturation binding curves were fit simultaneously using the following equation: […]

[1] = Fluorescence correlation spectroscopy in solution (HBSS); type: physicochemical
Experimental: The suitability of probe 11 for use with FCS was initially tested by recording 10 × 10 s trace reads in solution (100 nM in HBSS) (Figure S4). […] A 488 nm […] laser was used to excite SNAP-AF488 and the emission […] The pinhole diameter (1 Airy Unit; 1.1 μm optical slice), laser power and gain was kept constant in all the experiments. Images were acquired as 16-bit depth, 1024x1024 pixel resolution with a line averaging of 8 (or 2) and a pixel dwell time 4.12 µs (set to 5). Images were either processed in Zeiss ZEN 2 (blue edition) or FIJI (ImageJ) version 2.0.0 software, and linear adjustments to the brightness and contrast have been applied equally across all the images. To obtain membrane intensity values, regions of interest were drawn by hand around regions of cell membranes in FIJI (ImageJ)10 version 2.0.0 software. Fluorescence Correlation Spectroscopy. […] After that time, cells were washed 3x with warm HBSS over the course of 20 min, followed by the addition of 300 µL HBSS, left to cool to 24 OC and used in Fluorescence Correlation Spectroscopy (FCS) studies. […] For solution-based reads 10 x 10s trace measurements were taken within 200 µL sample with the confocal observation volume placed 200 µm above the coverslip. For apical membrane reads, 3 x 30s trace measurements at ~0.5 kW/cm2 laser power were taken on the apical membrane with its position determined as the peak of a point intensity S9 page 10: Z-scan utilising an argon 488 nm laser excitation, at ~0.5kW/cm2 laser power, detecting […] The placement was lowered by 0.2 µm to account for the optical chromatic offset between the 488 nm and 633 nm detection previously determined for our microscope set-up. Autocorrelation curves (AC) were constructed from fluorescence fluctuation traces and analysed within Zen Black (2012) software. […] Fluorescence fluctuation traces were reanalysed with Photon Counting Histogram analysis to determine the average molecular brightness of detected species. […]

NL-rA1AR = target: T2, NL-rA1AR (Rattus norvegicus, UniProt P25099); assay: NanoBRET competition ligand-binding assay (CA200645 tracer), NL-rA1AR
T2 construct: expressed in transfected cells
T2 sequence (P25099 1-326): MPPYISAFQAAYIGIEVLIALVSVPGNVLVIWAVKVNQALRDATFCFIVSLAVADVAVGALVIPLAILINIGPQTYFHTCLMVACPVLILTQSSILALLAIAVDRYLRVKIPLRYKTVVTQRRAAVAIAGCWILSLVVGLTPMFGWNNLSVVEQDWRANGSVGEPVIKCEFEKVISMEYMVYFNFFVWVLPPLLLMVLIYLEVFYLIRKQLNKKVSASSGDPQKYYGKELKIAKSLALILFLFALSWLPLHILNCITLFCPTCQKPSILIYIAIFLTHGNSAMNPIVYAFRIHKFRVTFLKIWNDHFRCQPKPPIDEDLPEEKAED

| Structure (SMILES) | Kd (NL-hA1AR; HEK293T cells stably expressing NL-hA1AR, 1 h 37 °C, mean ± SEM, read-out: affinity values pKD, NL-hA1AR (converted)) | greater affinity for the NL-A1AR compared to the NL-A2AAR (saturation binding) (NL-hA1AR; selectivity from pKD values) | dwell time in solution (FCS, 3D diffusion model) ([1]; 100 nM in HBSS) | diffusion coefficient, D, in solution ([1]; 100 nM in HBSS, calibrated with Cy5) | PCH analysis, state in solution ([1]; 1-component fit, HBSS) | Ki (NL-rA1AR; CA200645 (25 nM) tracer, HEK293T cells, mean ± SEM, read-out: affinity values pKi, NL-rA1AR (converted)) | Ki (NL-rA1AR; supplementary CSV, read-out: AFFINITY (A1AR_rat) pKi (converted)) |
| --- | --- | --- | --- | --- | --- | --- | --- |
| CCCCn1c(=O)c2[nH]c(C34CCC(C(=O)NCCNC(=O)CCNC(=O)c5ccc(OC(=O)CCCCC[N+]6=C(/C=C/C=C/C=C7/N(C)c8ccc(S(=O)(=O)O)cc8C7(C)C)C(C)(C)c7cc(S(=O)(=O)[O-])ccc76)c(F)c5)(CC3)CC4)nc2n(CCCC)c1=O [Compound 11, 1-(6-(4-((3-((2-(4-(1,3-Dibutyl-2,6-dioxo-2,3,6,7-tetrahydro-1H-purin-8-yl)bicyclo[2.2.2]octane-1-carboxamido)ethyl)amino)-3-oxopropyl)carbamoyl)-2-fluorophenoxy)-6-oxohexyl)-3,3-dimethyl-2-((1E,3E)-5-((E)-1,3,3-trimethyl-5-sulfoindolin-2-ylidene)penta-1,3-dien-1-yl)-3H-indol-1-ium-5-sulfonate] | 0.0309 µM | 7 fold | 117.6 ± 17.6 μs | 142.7 ± 17.3 μm^2/s | single species with no aggregation |  |  |
| CCCCn1c(=O)c2[nH]c(C34CCC(C(=O)NCCNC(=O)CCNC(=O)c5ccc(OC(=O)CCC(=O)NCCOCCOCCNC(=O)O[C@H]6CC/C=C/CCC6)c(F)c5)(CC3)CC4)nc2n(CCCC)c1=O [Compound 12, 4-((3-((2-(4-(1,3-Dibutyl-2,6-dioxo-2,3,6,7-tetrahydro-1H-purin-8-yl)bicyclo[2.2.2]octane-1-carboxamido)ethyl)amino)-3-oxopropyl)carbamoyl)-2-fluorophenyl (R,E)-1-(Cyclooct-4-en-1-yloxy)-1,12-dioxo-5,8-dioxa-2,11-diazapentadecan-15-oate] |  |  |  |  |  | 0.0102 µM | 0.00832 µM |
